Data set [1] deals with IL-2 release from CD4+ T cells. The experiment in a line: IL-2 release from CD4+ T cells using HTRF. The data set is classed as cell-based. Particulars: read-out: inhibition of IL-2 release from CD4+ T cells. (Time-resolved FRET reads energy transfer from a long-lived donor to a nearby acceptor.)
The test system of data set [2] is Anti-CD3e antibody induced CD4+ T cell cytokine-IL-2, IL-4 and IFN-γ production. The experiment in a line: Anti-CD3e antibody induced CD4+ T cell cytokine production in male BALB/c mice. The data set is classed as in vivo. Particulars: compared to Positive control; 1.5 hrs post-antibody treatment. The protocol:
1H-pyrrolo[2,3-b]pyridine series of compounds Mice IL-2, IL-4 and IFN-g: 60 mg/Kg is highly efficacious. There is a significant increase in serum IL-2, IL-4 and IFN-gamma (P<0.001) of Positive Control animals compared to negative control animals.

Data set [3] relates to T cell receptor. Nature of the data set: SelectScreen cell-based pathway profiling, T cell receptor, NFAT-bla Jurkat, anti-CD3:CD28 stimulated. Particulars: NFAT-bla Jurkat cells, anti-CD3:CD28 stim.
Data set [4] relates to Established Type II Collagen Arthritis. Nature of the data set: 11 day mouse established type II collagen arthritis, PO, BID. The class given is in vivo, DBA/1OlaHsd Mouse. The source says: Effects of 1H-pyrrolo[2,3-b]pyridine Series of Compounds Administered PO, BID in 11 Day DBA/1OlaHsd Mouse Established Type II Collagen Arthritis
Data set [5] has as its system JAK2/STAT5. Nature of the data set: SelectScreen cell-based pathway profiling, JAK2/STAT5, irf1-bla TF1, EPO stimulated. Particulars: irf1-bla TF1 cells, EPO stim.
The test system of data set [6] is JAK/STAT. The experiment in a line: SelectScreen cell-based pathway profiling, JAK/STAT, SIE-bla HEK 293T, IL-6 stimulated. The conditions noted are these: SIE-bla HEK 293T cells, IL-6 stim.
Data set [7] concerns JAK/STAT. The experiment in a line: SelectScreen cell-based pathway profiling, JAK/STAT, SIE-bla HEK 293T, IFN-gamma stimulated. Particulars: SIE-bla HEK 293T cells, IFN-gamma stim.
The subject of data set [8] is IL-4/STAT6. The experiment in a line: SelectScreen cell-based pathway profiling, IL-4/STAT6, STAT6-bla RA1, IL-4 stimulated. The conditions noted are these: STAT6-bla RA1 cells, IL-4 stim, 10-point titration.

pIC50: −log10 of the molar value.

We go through five molecules from patent US9206188B2, “Substituted pyrrolo[2,3-b]pyridines as ITK and JAK inhibitors” (Arrien Pharmaceuticals LLC, priority 2013, dated 2015).

On to `COc1cc(C)c(Sc2cnc(NC(=O)c3ccc(CNC(C)C(C)(C)C)cc3)s2)cc1C(=O)N1CCN(C(C)=O)CC1` (stereo not drawn) [BMS509744], for which the pIC50 in data set [1] was 6.46.

Regarding `C[C@@H]1C[C@H]2[C@@H]3CCC4=CC(=O)C=C[C@]4(C)[C@@]3(F)[C@@H](O)C[C@]2(C)[C@@]1(O)C(=O)CO` [Dexamethasone], in data set [2], the “serum IFN-gamma” value is recorded as “significant decrease”, the “serum IL-2” value is on record as “significant decrease” and the “serum IL-4” value was “significant decrease”.

In turn, `Cn1cc(C2=C(c3cn(CCCSC(=N)N)c4ccccc34)C(=O)NC2=O)c2ccccc21` [Ro-31-8220] had a pIC50 in data set [3] of 6.21.

As to `C[C@@H]1CCN(C(=O)CC#N)C[C@@H]1N(C)c1ncnc2[nH]ccc12` [Tofacitinib], in data set [2], the “serum IFN-gamma” value is on record as “significant decrease”, the “serum IL-2” value was “significant decrease” and the “serum IL-4” value is on record as “significant decrease”. Besides, the “effectiveness, suppression of the inflammatory response” value in data set [4] (collagen-induced arthritis in mice) came to 97%. For the same molecule, the body weight entry in data set [4] (series 100 mg/kg group, Tofacitinib 60 mg/Kg) was “body weight change from day 1”. The fever entry in data set [4] (treated mice, in vivo studies) is recorded as “had fever”.

Regarding JAK Inhibitor I, the pIC50 in data set [5] is 8.16; in data set [6], 7.66; in data set [7], 7.08; in data set [8] it was 7.84.
